Results from PMC4033217, “Characterization of Novel PI3Kδ Inhibitors as Potential Therapeutics for SLE and Lupus Nephritis in Pre-Clinical Studies” (Frontiers in Immunology, 2014).
“Also recorded” adds a separate entry of the source. Read-outs that look alike come from different tables or passages of the source.

Key:
[1] = tested on: CD19+ B cells; experiment: B cell cytokine release assay (anti-Ig, CpG ODN 2006, IFNα); type: cell-based; conditions: Homo sapiens, 48 h
Protocol: Cytokines in the supernatants were measured with Cytometric Bead Array kits (BD Biosciences Pharmingen, San Diego, CA, USA).

[2] = tested on: 12 BioMAP human primary cell co-culture systems; experiment: BioMAP profiling in 12 human primary cell co-culture systems; conditions: any concentration (from 10 to 33.3 μM as printed), any culture system
Protocol: Overt cytotoxicity of test compounds was assessed by total cell protein staining sulforhodamine B (Sigma-Aldrich, St. Louis, MO, USA) for adherent cells, or by cell viability staining Alamar Blue (Invitrogen, Carlsbad, CA, USA) for non-adherent cells.
Overtly adverse effects of
Proliferation of PBMC (T cells) was
140 quantiﬁ ed by Alamar blue reduction and proliferation of adherent cell types was quantiﬁ ed by SRB
PBMC viability was assessed by adding Alamar blue (Invitrogen, Camarillo, CA) to PBMC
SRB was performed by removing supernatants from plates, washing plates with
Plates are washed ag ain with PBS then,
Overtly cytotoxic compounds are

[3] = tested on: CD69 on B220+ B cells, mouse whole blood; experiment: Anti-IgD-induced CD69 in mouse whole blood (in vitro); type: cell-based; conditions: B-cell
Protocol: Whole blood withdrawn from naïve C57BL/6N mice (Charles River Laboratories, L’Arbresle, France) were incubated with PI3Kδ inhibitors for 30 min and stimulated with 1/12 goat anti-mouse IgD antiserum (eBioscience, San Diego, CA, USA) for 4 h before staining with anti-B220-PerCP-Cy5.5 and anti-CD69-PE (all BD Biosciences Pharmingen, San Diego, CA, USA) for 30 min at room temperature. After red blood cells lysis, B220^+IgD^+ cells were gated for CD69 analysis.

[4] = Intrinsic clearance in mouse liver microsomes; type: in vitro ADME; conditions: read-out: In vitro Clint
Text: (§1) 36 CLint: intrinsic clearance in liver microsomes. h/m: human/mouse. Papp: apparent permeability. uPPB:
(§2) 37 unbound plasma protein binding. […]

[5] = Intrinsic clearance in human liver microsomes; type: in vitro ADME; conditions: read-out: In vitro Clint
Text: as §1, §2

[6] = tested on: pAkt and CD69 in B cells; experiment: Ex vivo mouse whole blood assays (pAkt, CD69) after oral dosing; type: in vivo; conditions: for ED50: Mus musculus, B-cell, naïve C57BL/6N mice, read-out: ED50 inhibition of pAkt and CD69
Protocol: PI3Kδ inhibitors were administered to naïve C57BL/6N mice (Charles River Laboratories, L’Arbresle, France), by gavage at indicated time points before heparinized whole blood was obtained and divided into two aliquots. One aliquot was incubated with anti-IgD as stimulation and another PBS as basal control. pAkt in B cells or CD69 up-regulation on B cell surface of each sample was measured as described for the in vitro assays. The difference between stimulated and basal levels of mean fluorescence intensity (MFI) was calculated as Δ value.

[7] = tested on: CD69 on CD19+ B cells, human whole blood; experiment: Anti-IgM-induced CD69 in human whole blood; type: cell-based; conditions: B-cell, healthy donors, 18 h, read-out: IC50 anti-IgM-induced CD69 up-regulation
Text: After red blood cells lysis, CD19^+ cells were gated for CD69 analysis.

[8] = molecular target: PI3K β (Homo sapiens, UniProt P42338); experiment: Scintillation proximity assay, PI3Kβ enzymatic activity; type: biochemical; conditions: 65 μM ATP, read-out: Enzymatic potency IC50
[9] = tested on: NZB/W F1 mice; experiment: IFNα-accelerated NZB/W F1 mouse SLE model; type: in vivo
Protocol: All protocols and procedures were conducted according to German animal protection law (Tierschutzgesetz) and were approved by the local veterinarian authorities (Regierungspräsidium, Darmstadt, Germany). Ten-week-old female NZB/W F1 mice (Jackson Laboratories, Bar Harbor, ME, USA) were given a single i.v. injection of 1 × 10^8 IU/100 μl of AdV-IFN-α (adenovirus with mmIfna5_v1 insert, Biofocus, CoA.NL.09.160) in saline or left untreated (sham). Drug treatments were either initiated at 2 weeks (early intervention regimen) or 4 weeks (late intervention regimen) post AdV-IFN-α delivery until the end of the experiment (at 10 weeks). […] Serum and urine samples were collected for anti-dsDNA antibodies (by ELISA) and urinary protein creatinine ratio (UPCR) (measured by ADVIA 1800) determination, respectively, on the days indicated. Proteinuria is defined as UPCR >3.

Sequence of PI3K β (P42338 whole entry): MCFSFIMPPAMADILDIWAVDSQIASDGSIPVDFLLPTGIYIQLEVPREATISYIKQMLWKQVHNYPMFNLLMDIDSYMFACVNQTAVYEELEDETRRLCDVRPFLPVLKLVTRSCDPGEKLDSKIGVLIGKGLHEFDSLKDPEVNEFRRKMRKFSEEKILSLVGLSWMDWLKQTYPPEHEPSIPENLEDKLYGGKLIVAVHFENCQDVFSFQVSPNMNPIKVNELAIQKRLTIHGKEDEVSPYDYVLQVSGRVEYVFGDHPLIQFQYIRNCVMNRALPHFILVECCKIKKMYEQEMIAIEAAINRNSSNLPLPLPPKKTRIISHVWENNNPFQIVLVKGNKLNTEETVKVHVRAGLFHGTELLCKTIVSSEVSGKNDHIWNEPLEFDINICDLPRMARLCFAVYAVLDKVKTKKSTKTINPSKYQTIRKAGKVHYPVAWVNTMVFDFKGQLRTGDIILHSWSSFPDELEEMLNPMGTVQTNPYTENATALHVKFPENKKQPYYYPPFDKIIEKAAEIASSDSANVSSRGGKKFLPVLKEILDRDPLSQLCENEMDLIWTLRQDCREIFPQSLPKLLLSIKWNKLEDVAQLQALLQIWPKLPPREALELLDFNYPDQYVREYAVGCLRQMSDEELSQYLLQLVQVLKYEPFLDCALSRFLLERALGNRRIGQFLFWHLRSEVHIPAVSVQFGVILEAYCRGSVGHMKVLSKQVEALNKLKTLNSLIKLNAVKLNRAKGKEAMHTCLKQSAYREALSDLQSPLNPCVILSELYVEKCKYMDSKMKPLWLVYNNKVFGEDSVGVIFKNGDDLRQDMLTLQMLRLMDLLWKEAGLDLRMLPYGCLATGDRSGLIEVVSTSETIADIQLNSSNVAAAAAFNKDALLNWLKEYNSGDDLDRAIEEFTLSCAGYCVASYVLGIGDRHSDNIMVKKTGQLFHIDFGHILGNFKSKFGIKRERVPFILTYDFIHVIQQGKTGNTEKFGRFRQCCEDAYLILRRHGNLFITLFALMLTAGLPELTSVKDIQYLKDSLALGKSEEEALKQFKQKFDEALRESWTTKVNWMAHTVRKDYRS
Sequence of PI3K β (P27986 whole entry partner): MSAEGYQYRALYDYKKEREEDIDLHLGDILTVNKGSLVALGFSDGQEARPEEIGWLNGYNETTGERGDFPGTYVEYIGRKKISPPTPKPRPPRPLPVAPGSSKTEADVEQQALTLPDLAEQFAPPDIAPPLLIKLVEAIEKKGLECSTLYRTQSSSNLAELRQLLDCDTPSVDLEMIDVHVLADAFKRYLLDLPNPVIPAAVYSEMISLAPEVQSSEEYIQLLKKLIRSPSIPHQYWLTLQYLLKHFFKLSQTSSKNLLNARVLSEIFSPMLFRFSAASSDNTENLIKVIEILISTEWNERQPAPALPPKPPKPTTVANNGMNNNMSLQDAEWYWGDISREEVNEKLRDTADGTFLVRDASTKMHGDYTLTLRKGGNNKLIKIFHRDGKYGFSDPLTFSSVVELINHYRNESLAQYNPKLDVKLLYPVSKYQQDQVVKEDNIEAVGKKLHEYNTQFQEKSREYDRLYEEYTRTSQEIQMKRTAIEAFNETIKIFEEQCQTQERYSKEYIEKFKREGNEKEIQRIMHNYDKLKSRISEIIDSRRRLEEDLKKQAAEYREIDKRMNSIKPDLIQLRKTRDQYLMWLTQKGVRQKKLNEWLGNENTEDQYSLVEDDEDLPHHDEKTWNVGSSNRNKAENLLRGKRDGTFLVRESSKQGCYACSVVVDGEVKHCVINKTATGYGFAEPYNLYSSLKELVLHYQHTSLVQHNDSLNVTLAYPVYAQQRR

IC50 ([1]; read-out: IC50 IL-6): 9 nM
IC50 ([1]; read-out: IC50 IL-10): 10 nM
IC50 ([1]; read-out: IC50 TNF-α): 18 nM
IC50 ([3]; average, read-out: average IC50 for CD69): 16 nM
IC50 ([3]; representative experiment of Figure 5B, read-out: IC50 CD69): 18 nM
microsomal CLint [4]: 35 µL/min/mg
microsomal CLint [5]: 21 µL/min/mg
IC50 [8]: 2450 nM
SMILES: O=C(c1nn([C@@H]2CCCN(CCN3CCOCC3)C2)c2c1CS(=O)(=O)c1cc(F)ccc1-2)N1CCOCC1 [MSC2364588, (R)-7-fluoro-3-(morpholin-4-ylcarbonyl)-1-[1-(2-morpholin-4-ylethyl)piperidin-3-yl]-1,4-dihydrothiochro-meno[4,3-c]pyrazole 5,5-dioxide]
Cytotoxicity [2]: No signs of cytotoxicity
Effect on pAkt and CD69 ([6]; 6 h post administration): almost no effect
ED50 ([6]; 1 h time point): 3 mg/kg
ED50 ([6]; 2 h): ~10 mg/kg
IC50 [7]: 21 nM
Proteinuria progression / disease severity ([9]; half daily dose given twice daily, early intervention): reduces disease severity; also recorded: Equivalent results
Drug-related body weight loss ([9]; throughout the studies, data not shown): no drug-related body weight loss
